Measured values published in ChEMBL document CHEMBL1137521, “In vivo growth inhibitory and anti-angiogenic effects of synthetic novel dienone cyclopropoxy curcumin analogs on mouse Ehrlich ascites tumor” (2007).
The source made the active and inactive calls. The rule behind the calls is not given here.

Key:
[1] = test system: Mus musculus; assay: Growth inhibition of Swiss Albino mouse bearing EAT cells assessed as increase in life span at 100 mg/kg, ip; format: functional; design: scale not given: the % may be the effect or the level left; details: route intraperitoneal
[2] = test system: Mus musculus; assay: Growth inhibition of Swiss Albino mouse bearing EAT cells assessed as reduction in cell numbers at 100 mg/kg, ip relative to control; format: functional, organism-based; design: dose 100 mg/kg
[3] = test system: Mus musculus; assay: Growth inhibition of Swiss Albino mouse bearing EAT cells assessed as decrease in ascites volume at 100 mg/kg, ip relative to control; format: functional, organism-based; design: dose 100 mg/kg
[4] = test system: Mus musculus; assay: Antiangiogenic effect in Swiss Albino mouse bearing EAT cells assessed as inhibition of blood vessel formation in at 100 mg/kg, ip; format: functional; details: route intraperitoneal
[5] = species on record: Mus musculus; assay: Antiangiogenic effect in Swiss Albino mouse bearing EAT cells assessed as decrease in microvessel density by CAM assay; format: functional, organism-based
[6] = test system: Mus musculus; assay: Growth inhibition of Swiss Albino mouse bearing EAT cells assessed as increase in median survival time at 100 mg/kg, ip; format: functional; details: route intraperitoneal
[7] = test system: Mus musculus; assay: Growth inhibition of Swiss Albino mouse bearing EAT cells assessed as increase in life span at 100 mg/kg, ip administered on day 9 after tumor inoculation; format: functional; design: scale not given: the % may be the effect or the level left; details: route intraperitoneal
[8] = test system: Mus musculus; assay: Growth inhibition of Swiss Albino mouse bearing EAT cells assessed as increase in life span at 100 mg/kg, ip administered on day 11 after tumor inoculation; format: functional; design: scale not given: the % may be the effect or the level left; details: route intraperitoneal
[9] = test system: Mus musculus; assay: Growth inhibition of Swiss Albino mouse bearing EAT cells assessed as increase in life span at 100 mg/kg, ip administered on day 7 after tumor inoculation; format: functional; design: scale not given: the % may be the effect or the level left; details: route intraperitoneal

Compound | Activity [1] | Activity [2] | Activity [3] | Activity [4] | Activity [5] | Survival [6] | Activity [7] | Activity [8] | Activity [9]
O=C(/C=C/c1ccc(OC2CC2)cc1)/C=C/c1ccc(OC2CC2)cc1 | 34.4% | Active | Active | 4.2 | Active | 24.2 days | 34.4% | – | –
COc1cc(/C=C/C(=O)/C=C/c2cc(OC)c(OC3CC3)c(OC)c2)cc(OC)c1OC1CC1 | 77.7% | Active | Active | 2.8 | Active | 32 days | – | – | –
Cc1cc(/C=C/C(=O)/C=C/c2ccc(OC3CC3)c(C)c2)ccc1OC1CC1 | 28.8% | Active | Active | 4.4 | Active | 23.2 days | – | 28.8% | –
COc1cc(/C=C/C(=O)/C=C/c2ccc(OC3CC3)c(OC)c2)ccc1OC1CC1 | 48.8% | Active | Active | 3 | Active | 26.8 days | – | – | 48.8%
